Molecules are shown by their SMILES. Read-outs that look alike come from different tables or passages of the source.

For test [1], the system named is NCI-H460 cells. As to the kind of experiment: Cancer cell growth inhibition experiment (MTT assay). The format is cell-based. The settings on record: Homo sapiens, lung cancer cell line, compounds 48 hours, cell viability by MTT assay. Here is the method: NCl-H460 cells, lung cancer cell lines, were cultured in 5% CO2, 37° C. incubator using a flask for 75 cm^2 tissue culture. 96-well plates were used for the evaluation. These were prepared by differently applying at concentrations in the range of 6,000 to 12,000 cells/well according to the growth rate of the cell lines. The medium containing 5% FBS were dispensed in 200 μL/well and used. The medium were cultured for 24 hours. After confirming the cell status and dispensing form of a 96-well plate under a microscope, they were used for subsequent experiments. The compounds were evaluated at concentrations of 100, 30, 10, 3, 1, 0.3, 0.03, 0.01 μM. After removing the existing medium, the compounds with various concentrations were treated in an amount of 200 μL/well. The compounds-treated plates were further cultured for 48 hours, and the cell viabilities were measured by MTT assay to calculate IC50 values.
% Inhibition and IC50 values of the respective compounds were calculated and analyzed using Sigma Plot 8.0. In Table 2, the results are divided into A, B and C according to the range of IC50. The case where the derived IC50 is 3 μM or less is represented by “A”, the case where the IC50 is 3 to 10 μM is represented by “B”, and the case where the IC50 is 10 μM or higher is represented by “C”.
A general note: Tetrazolium dyes change colour on reduction, which living cells bring about.

Test [2] deals with T1, PRS enzyme (Homo sapiens, UniProt P07814).
T1 construct: the portion corresponding to PRS in cDNA of EPRS was subcloned; made in house
T1 sequence (P07814 1007-1512 limits assumed): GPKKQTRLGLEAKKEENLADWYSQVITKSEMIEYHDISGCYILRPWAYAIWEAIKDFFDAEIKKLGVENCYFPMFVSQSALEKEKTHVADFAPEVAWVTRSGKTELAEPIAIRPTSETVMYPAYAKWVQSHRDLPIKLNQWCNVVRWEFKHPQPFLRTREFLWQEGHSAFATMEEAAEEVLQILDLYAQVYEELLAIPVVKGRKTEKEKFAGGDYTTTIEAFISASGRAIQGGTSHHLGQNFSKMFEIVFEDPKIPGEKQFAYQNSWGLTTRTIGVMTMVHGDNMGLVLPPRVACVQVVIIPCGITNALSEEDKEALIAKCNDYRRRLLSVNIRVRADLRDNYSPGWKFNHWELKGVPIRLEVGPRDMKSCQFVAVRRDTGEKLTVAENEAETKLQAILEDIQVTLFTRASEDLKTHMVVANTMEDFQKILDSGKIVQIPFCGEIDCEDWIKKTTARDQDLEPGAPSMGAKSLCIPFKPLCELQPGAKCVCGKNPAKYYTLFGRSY
As to the kind of experiment: PRS enzyme activity inhibition experiment. The format is biochemical. Here is the method:
Specifically, the portion corresponding to PRS in cDNA of EPRS was subcloned, and the obtained high-purity PRS protein was purified and used in the experiment. The compounds (1 μM) prepared in Examples were added into the reaction buffer (20 mM KPO4 (pH 7.4), 6 mM MgAc, 5 mM ATP, […] tRNA, 0.5 mM DTT, […][^3H]proline (1 mCi/mL)) and allowed to react at 37° C. for 5 to 10 minutes. The reaction was terminated with 3M paper that was in advance dried by addition of 5% TCA. The radioactivity was measured using a liquid scintillation counter.
% Inhibition and IC50 values of the respective compounds were calculated and analyzed using Microsoft Excel or Sigma Plot 8.0. In Table 1, the results are divided into A, B and C according to the range of IC50.

The mark [3] stands for this setting: purified PRS protein subcloned from EPRS cDNA, [3H]proline, 37° C., 5 to 10 minutes, liquid scintillation counter, read-out: PRS IC50.

By IC50 is commonly meant the concentration at which inhibition is half-maximal. Regarding `O=C(C[C@H]1NCCC[C@@H]1O)Cn1cnc2c(-c3ccccc3)cccc21` [Example 1, 1-((2R,3S)-3-hydroxypiperidin-2-yl)-3-(4-phenyl-1H-benzo[d]imidazol-1-yl)propan-2-one], the IC50 in test [1] is ≥ 10000 nM; in test [2] (setting [3]), 100 to 500 nM. As for `O=C(C[C@H]1NCCC[C@@H]1O)Cn1cnc2c(-c3cccc(F)c3)nccc21` [Example 2, 1-(4-(3-fluorophenyl)-1H-imidazo[4,5-c]pyridin-1-yl)-3-((2R,3S)-3-hydroxypiperidin-2-yl)propan-2-one], the 50% inhibitory concentration (IC50) in test [2] (setting [3]) is > 500 nM. With `O=C(C[C@H]1NCCC[C@@H]1O)Cn1cnc2c(-c3cccc(Cl)c3)nccc21` [Example 3, 1-(4-(3-chlorophenyl)-1H-imidazo[4,5-c]pyridin-1-yl)-3-((2R,3S)-3-hydroxypiperidin-2-yl)propan-2-one], the IC50 in test [2] (setting [3]) was > 500 nM. On to `O=C(C[C@H]1NCCC[C@@H]1O)Cn1cnc2c(-c3cccc(C(F)(F)F)c3)nccc21` [Example 4, 1-((2R,3S)-3-hydroxypiperidin-2-yl)-3-(4-(3-(trifluoromethyl)phenyl)-1H-imidazo[4,5-c]pyridin-1-yl)propan-2-one], for which, in test [2] (setting [3]), the IC50 is > 500 nM.

`O=C(C[C@H]1NCCC[C@@H]1O)Cn1cnc2c(-c3cc(F)cc(Cl)c3)nccc21` [Example 5, 1-(4-(3-chloro-5-fluorophenyl)-1H-imidazo[4,5-c]pyridin-1-yl)-3-((2R,3S)-3-hydroxypiperidin-2-yl)propan-2-one]: the IC50 in test [2] (setting [3]) was > 500 nM. Take `O=C(C[C@H]1NCCC[C@@H]1O)Cn1cnc2c(-c3cc(Cl)cc(Cl)c3)nccc21` [Example 6, 1-(4-(3,5-dichlorophenyl)-1H-imidazo[4,5-c]pyridin-1-yl)-3-((2R,3S)-3-hydroxypiperidin-2-yl)propan-2-one]: the IC50 in test [2] (setting [3]) is > 500 nM. On to `O=C(C[C@H]1NCCC[C@@H]1O)Cn1cnc2c(N3CCCC3)nccc21` [Example 7, 1-((2R,3S)-3-hydroxypiperidin-2-yl)-3-(4-(pyrrolidin-1-yl)-1H-imidazo[4,5-c]pyridin-1-yl)propan-2-one], for which, in test [1], the IC50 is ≥ 10000 nM.

Take `O=C(C[C@H]1NCCC[C@@H]1O)Cn1cnc2cc(-c3ccccc3)ccc21` [Example 8, 1-((2R,3S)-3-hydroxypiperidin-2-yl)-3-(5-phenyl-1H-benzo[d]imidazol-1-yl)propan-2-one]: the IC50 was ≥ 10000 nM in test [1] and > 500 nM in test [2] (setting [3]). Take `O=C(C[C@H]1NCCC[C@@H]1O)Cn1cnc2nc(-c3ccccc3F)ccc21` [Example 9, 1-(5-(2-fluorophenyl)-1H-imidazo[4,5-b]pyridin-1-yl)-3-((2R,3S)-3-hydroxypiperidin-2-yl)propan-2-one]: the IC50 in test [2] (setting [3]) is > 500 nM. Still for that read-out and setting: to `O=C(C[C@H]1NCCC[C@@H]1O)Cn1cnc2nc(-c3cccc(F)c3)ccc21` [Example 10, 1-(5-(3-fluorophenyl)-1H-imidazo[4,5-b]pyridin-1-yl)-3-((2R,3S)-3-hydroxypiperidin-2-yl)propan-2-one] belongs > 500 nM. Same read-out and setting: with `O=C(C[C@H]1NCCC[C@@H]1O)Cn1cnc2nc(-c3ccc(F)cc3)ccc21` [Example 11, 1-(5-(4-fluorophenyl)-1H-imidazo[4,5-b]pyridin-1-yl)-3-((2R,3S)-3-hydroxypiperidin-2-yl)propan-2-one] the figure was > 500 nM. `O=C(C[C@H]1NCCC[C@@H]1O)Cn1cnc2nc(-c3cccc(Cl)c3)ccc21` [Example 12, 1-(5-(3-chlorophenyl)-1H-imidazo[4,5-b]pyridin-1-yl)-3-((2R,3S)-3-hydroxypiperidin-2-yl)propan-2-one]: the IC50 in test [2] (setting [3]) is > 500 nM. Same read-out and setting: to `O=C(C[C@H]1NCCC[C@@H]1O)Cn1cnc2nc(-c3cccc(C(F)(F)F)c3)ccc21` [Example 13, 1-((2R,3S)-3-hydroxypiperidin-2-yl)-3-(5-(3-(trifluoromethyl)phenyl)-1H-imidazo[4,5-b]pyridin-1-yl)propan-2-one] belongs > 500 nM.

With `O=C(C[C@H]1NCCC[C@@H]1O)Cn1cnc2cc(-c3cccc(Cl)c3)cnc21` [Example 14, 1-(6-(3-chlorophenyl)-3H-imidazo[4,5-b]pyridin-3-yl)-3-((2R,3S)-3-hydroxypiperidin-2-yl)propan-2-one], the values for the IC50 in test [1] and in test [2] (setting [3]) were ≥ 10000 nM and 100 to 500 nM, respectively.

As to `O=C(C[C@H]1NCCC[C@@H]1O)Cn1cnc2cc(-c3cccc(C(F)(F)F)c3)cnc21` [Example 15, 1-((2R,3S)-3-hydroxypiperidin-2-yl)-3-(6-(3-(trifluoromethyl)phenyl)-3H-imidazo[4,5-b]pyridin-3-yl)propan-2-one], the IC50 in test [2] (setting [3]) is > 500 nM. `Cc1c(-c2cccc(F)c2)ccc2c1ncn2CC(=O)C[C@H]1NCCC[C@@H]1O` [Example 16, 1-(5-(3-fluorophenyl)-4-methyl-1H-benzo[d]imidazol-1-yl)-3-((2R,3S)-3-hydroxypiperidin-2-yl)propan-2-one]: the figures for the IC50 in test [1] and in test [2] (setting [3]) were ≥ 10000 nM and 100 to 500 nM, respectively.

On to `Cc1c(-c2cccc(Cl)c2)ccc2c1ncn2CC(=O)C[C@H]1NCCC[C@@H]1O` [Example 17, 1-(5-(3-chlorophenyl)-4-methyl-1H-benzo[d]imidazol-1-yl)-3-((2R,3S)-3-hydroxypiperidin-2-yl)propan-2-one], for which the IC50 was ≥ 10000 nM in test [1] and 100 to 500 nM in test [2] (setting [3]).

`Cc1c(-c2ccccc2Cl)ccc2c1ncn2CC(=O)C[C@H]1NCCC[C@@H]1O` [Example 18, 1-(5-(2-chlorophenyl)-4-methyl-1H-benzo[d]imidazol-1-yl)-3-((2R,3S)-3-hydroxypiperidin-2-yl)propan-2-one]: the results for the IC50 in test [1] and in test [2] (setting [3]) were ≥ 10000 nM and > 500 nM, respectively.

Consider `Cc1c(-c2ccc(Cl)cc2)ccc2c1ncn2CC(=O)C[C@H]1NCCC[C@@H]1O` [Example 19, 1-(5-(4-chlorophenyl)-4-methyl-1H-benzo[d]imidazol-1-yl)-3-((2R,3S)-3-hydroxypiperidin-2-yl)propan-2-one], for which the 50% inhibitory concentration (IC50) in test [1] was ≥ 10000 nM; in test [2] (setting [3]), 100 to 500 nM. With `Cc1c(-c2cccc(C#N)c2)ccc2c1ncn2CC(=O)C[C@H]1NCCC[C@@H]1O` [Example 20, 3-(1-(3-((2R,3S)-3-hydroxypiperidin-2-yl)-2-oxopropyl)-4-methyl-1H-benzo[d]imidazol-5-yl)benzonitrile], the concentration for half-maximal inhibition (IC50) in test [1] was ≥ 10000 nM; in test [2] (setting [3]), > 500 nM. The like results for `Cc1c(-c2cccc(C(F)(F)F)c2)ccc2c1ncn2CC(=O)C[C@H]1NCCC[C@@H]1O` [Example 21, 1-((2R,3S)-3-hydroxypiperidin-2-yl)-3-(4-methyl-5-(3-(trifluoromethyl)phenyl)-1H-benzo[d]imidazol-1-yl)propan-2-one] were, in that order, ≥ 10000 nM and 100 to 500 nM.

`O=C(C[C@H]1NCCC[C@@H]1O)Cn1cnc2ncc(-c3cccc(C(F)(F)F)c3)cc21` [Example 42, 1-((2R,3S)-3-hydroxypiperidin-2-yl)-3-(6-(3-(trifluoromethyl)phenyl)-1H-imidazo[4,5-b]pyridin-1-yl)propan-2-one]: the IC50 in test [2] (setting [3]) fell in the range of 100 to 500 nM. For `O=C(C[C@H]1NCCC[C@@H]1O)Cn1cnc2cccc(-c3ccccc3C(F)(F)F)c21` [Example 52, 1-((2R,3S)-3-hydroxypiperidin-2-yl)-3-(7-(2-(trifluoromethyl)phenyl)-1H-benzo[d]imidazol-1-yl)propan-2-one], the concentration for half-maximal inhibition (IC50) in test [2] (setting [3]) was > 500 nM. Same read-out and setting: with `O=C(C[C@H]1NCCC[C@@H]1O)Cn1cnc2cccc(-c3cccc(C(F)(F)F)c3)c21` [Example 53, 1-((2R,3S)-3-hydroxypiperidin-2-yl)-3-(7-(3-(trifluoromethyl)phenyl)-1H-benzo[d]imidazol-1-yl)propan-2-one] the figure was > 500 nM.

In the case of `O=C(C[C@H]1NCCC[C@@H]1O)Cn1c(CO)nc2cc(-c3ccccc3)ccc21` [Example 55, 1-(2-(hydroxymethyl)-5-phenyl-1H-benzo[d]imidazol-1-yl)-3-((2R,3S)-3-hydroxypiperidin-2-yl)propan-2-one], in test [2], the half-inhibitory concentration (IC50) is > 500 nM.
